Source: US11739098B2 (BRISTOL-MYERS SQUIBB COMPANY, priority 2017, dated 2023)

Tests used:
Format in all cases: cell-based
human TLR7 = target: T1, human TLR7 (Homo sapiens, UniProt Q9NYK1); experiment: TLR7 inhibition reporter assay (HEK-Blue cells, SEAP reporter, gardiquimod stimulation); details: HEK-Blue cells overexpressing human TLR7, SEAP reporter, gardiquimod 7.5 μM
T1 construct: host or cells: HEK-Blue cells (HEK293-derived reporter line)
T1 sequence (Q9NYK1 27-1049): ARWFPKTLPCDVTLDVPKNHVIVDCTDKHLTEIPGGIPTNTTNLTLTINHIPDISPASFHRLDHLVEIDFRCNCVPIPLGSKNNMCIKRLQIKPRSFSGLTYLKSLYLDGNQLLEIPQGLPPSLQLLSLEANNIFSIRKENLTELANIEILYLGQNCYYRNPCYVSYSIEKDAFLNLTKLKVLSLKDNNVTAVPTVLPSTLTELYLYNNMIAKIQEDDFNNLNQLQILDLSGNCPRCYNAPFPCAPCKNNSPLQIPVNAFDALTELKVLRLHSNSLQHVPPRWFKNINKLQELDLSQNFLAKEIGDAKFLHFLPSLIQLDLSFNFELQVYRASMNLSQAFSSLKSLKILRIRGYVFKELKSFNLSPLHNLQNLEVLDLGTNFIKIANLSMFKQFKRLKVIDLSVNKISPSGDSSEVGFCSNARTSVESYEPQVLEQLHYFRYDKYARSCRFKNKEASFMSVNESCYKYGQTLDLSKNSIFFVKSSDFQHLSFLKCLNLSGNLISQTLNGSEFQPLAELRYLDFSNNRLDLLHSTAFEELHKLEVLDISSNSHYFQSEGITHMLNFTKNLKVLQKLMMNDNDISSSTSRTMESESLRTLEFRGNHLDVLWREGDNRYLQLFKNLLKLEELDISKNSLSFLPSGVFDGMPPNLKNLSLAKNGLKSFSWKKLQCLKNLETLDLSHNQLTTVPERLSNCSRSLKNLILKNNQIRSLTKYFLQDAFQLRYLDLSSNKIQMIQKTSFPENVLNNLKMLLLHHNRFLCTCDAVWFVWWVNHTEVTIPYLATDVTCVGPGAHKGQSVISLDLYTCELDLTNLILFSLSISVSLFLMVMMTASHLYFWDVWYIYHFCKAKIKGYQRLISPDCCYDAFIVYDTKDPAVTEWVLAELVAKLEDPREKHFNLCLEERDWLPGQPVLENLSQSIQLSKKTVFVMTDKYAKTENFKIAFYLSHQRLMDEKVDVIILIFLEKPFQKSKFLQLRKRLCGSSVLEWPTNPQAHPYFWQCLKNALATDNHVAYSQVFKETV
How it was run: (§1)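 Cells seeded per well (15000 TLR7, 20,000 TLR8, 25,000 TLR9); compound added over 0.05 nM–50 μM for 30 min at room temperature; agonist added (TLR7 gardiquimod 7.5 μM, TLR8 R848 15.9 μM, TLR9 ODN2006 5 nM); 22 h at 37 °C; SEAP measured; percent inhibition calculated.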

human TLR8 = target: T2, human TLR8 (Homo sapiens, UniProt Q9NR97); experiment: TLR8 inhibition reporter assay (HEK-Blue cells, SEAP reporter, R848 stimulation); details: HEK-Blue cells overexpressing human TLR8, SEAP reporter, R848 15.9 μM
T2 construct: host or cells: HEK-Blue cells (HEK293-derived reporter line)
T2 sequence (Q9NR97 27-1041): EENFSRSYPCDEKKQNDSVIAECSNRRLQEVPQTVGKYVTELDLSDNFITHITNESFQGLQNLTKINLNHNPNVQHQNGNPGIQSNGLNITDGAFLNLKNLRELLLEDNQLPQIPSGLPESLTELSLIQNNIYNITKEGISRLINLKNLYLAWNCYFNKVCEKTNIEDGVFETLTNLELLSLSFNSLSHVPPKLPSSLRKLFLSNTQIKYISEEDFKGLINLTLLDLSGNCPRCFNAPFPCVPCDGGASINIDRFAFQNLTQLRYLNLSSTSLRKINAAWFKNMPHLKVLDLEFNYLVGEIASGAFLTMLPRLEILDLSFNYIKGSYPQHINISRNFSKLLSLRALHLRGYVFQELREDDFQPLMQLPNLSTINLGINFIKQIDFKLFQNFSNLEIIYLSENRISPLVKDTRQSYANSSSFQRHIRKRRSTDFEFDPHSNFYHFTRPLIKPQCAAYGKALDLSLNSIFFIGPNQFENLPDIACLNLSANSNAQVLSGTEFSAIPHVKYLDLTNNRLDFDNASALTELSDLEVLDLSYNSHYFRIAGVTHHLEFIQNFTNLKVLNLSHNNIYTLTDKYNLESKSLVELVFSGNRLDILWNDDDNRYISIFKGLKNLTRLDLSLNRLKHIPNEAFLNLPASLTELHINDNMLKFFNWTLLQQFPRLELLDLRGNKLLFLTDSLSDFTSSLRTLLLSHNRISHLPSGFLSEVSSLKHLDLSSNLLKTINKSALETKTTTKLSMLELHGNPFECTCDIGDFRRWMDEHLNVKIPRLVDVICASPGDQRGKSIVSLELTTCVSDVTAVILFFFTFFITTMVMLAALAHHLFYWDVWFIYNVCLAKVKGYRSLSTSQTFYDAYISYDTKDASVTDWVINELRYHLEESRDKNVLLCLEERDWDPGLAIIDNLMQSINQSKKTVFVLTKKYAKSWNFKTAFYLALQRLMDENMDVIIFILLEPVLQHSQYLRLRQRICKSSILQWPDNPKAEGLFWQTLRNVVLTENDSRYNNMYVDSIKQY
How it was run: as §1

human TLR9 = target: T3, human TLR9 (Homo sapiens, UniProt Q9NR96); experiment: TLR9 inhibition reporter assay (HEK-Blue cells, SEAP reporter, ODN2006 stimulation); details: HEK-Blue cells overexpressing human TLR9, SEAP reporter, ODN2006 5 nM
T3 construct: host or cells: HEK-Blue cells (HEK293-derived reporter line)
T3 sequence (Q9NR96 26-1032): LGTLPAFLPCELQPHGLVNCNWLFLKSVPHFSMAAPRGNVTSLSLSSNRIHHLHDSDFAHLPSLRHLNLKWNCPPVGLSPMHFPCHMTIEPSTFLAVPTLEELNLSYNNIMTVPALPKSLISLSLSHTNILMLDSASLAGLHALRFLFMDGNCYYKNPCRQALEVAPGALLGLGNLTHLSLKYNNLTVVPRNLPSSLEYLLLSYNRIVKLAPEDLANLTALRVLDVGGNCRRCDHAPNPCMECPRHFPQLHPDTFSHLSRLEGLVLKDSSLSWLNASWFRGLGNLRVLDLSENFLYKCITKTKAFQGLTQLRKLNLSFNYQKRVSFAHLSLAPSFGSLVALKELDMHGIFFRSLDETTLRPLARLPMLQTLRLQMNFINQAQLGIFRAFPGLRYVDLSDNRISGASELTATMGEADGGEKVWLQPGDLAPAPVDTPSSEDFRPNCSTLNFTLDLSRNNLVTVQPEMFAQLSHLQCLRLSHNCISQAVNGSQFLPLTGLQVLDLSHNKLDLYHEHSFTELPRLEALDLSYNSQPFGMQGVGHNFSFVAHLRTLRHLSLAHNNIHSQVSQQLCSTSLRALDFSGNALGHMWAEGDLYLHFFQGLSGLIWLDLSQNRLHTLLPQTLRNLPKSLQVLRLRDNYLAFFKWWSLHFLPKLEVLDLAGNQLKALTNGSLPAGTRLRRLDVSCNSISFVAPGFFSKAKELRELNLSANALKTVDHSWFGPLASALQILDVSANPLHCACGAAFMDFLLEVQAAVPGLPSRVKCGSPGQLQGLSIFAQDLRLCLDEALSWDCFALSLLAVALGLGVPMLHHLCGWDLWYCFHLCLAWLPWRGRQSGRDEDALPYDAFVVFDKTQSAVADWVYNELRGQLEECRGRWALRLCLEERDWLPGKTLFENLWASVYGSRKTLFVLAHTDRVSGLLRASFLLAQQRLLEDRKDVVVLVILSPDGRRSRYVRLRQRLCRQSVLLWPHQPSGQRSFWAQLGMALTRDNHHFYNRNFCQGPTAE
How it was run: as §1

| SMILES | IC50 (human TLR7) [nM] | IC50 (human TLR8) [nM] | IC50 (human TLR9) [nM] |
| --- | --- | --- | --- |
| Cc1c(-c2[nH]c3ccc(C4CCN(CC(C)(C)O)CC4)cc3c2C(C)C)cn2ccnc2c1Cl [Example 772, 1-(4-(2-(8-chloro-7-methylimidazo[1,2-a]pyridin-6-yl)-3-isopropyl-1H-indol-5-yl)piperidin-1-yl)-2-methylpropan-2-ol] | < 100 | < 100 | 1000 to 50000 |
| COc1cc(-c2[nH]c3ccc(C4CCN(C5COC5)CC4)cc3c2C(C)C)nn2ncnc12 [Example 732, 6-(3-isopropyl-5-(1-(oxetan-3-yl)piperidin-4-yl)-1H-indol-2-yl)-8-methoxy-[1,2,4]triazolo[1,5-b]pyridazine] | < 100 | < 100 | 1000 to 50000 |
| CC(C)c1c(-c2cnc3ncnn3c2)[nH]c2ccc(C3CCN(C4COC4)CC3)cc12 [Example 721, 6-(3-isopropyl-5-(1-(oxetan-3-yl)piperidin-4-yl)-1H-indol-2-yl)-[1,2,4]triazolo[1,5-a]pyrimidine] | < 100 | 100 to 1000 | 1000 to 50000 |
| CC(=O)NCCNCC(=O)N1CCC(c2ccc3[nH]c(-c4ccnc5[nH]ncc45)c(C(C)C)c3c2)CC1 [Example 573, N-(2-((2-(4-(3-isopropyl-2-(1H-pyrazolo[3,4-b]pyridin-4-yl)-1H-indol-5-yl)piperidin-1-yl)-2-oxoethyl)amino)ethyl)acetamide] | < 100 | < 100 | 1000 to 50000 |
| Cc1cc(-c2[nH]c3ccc(C4CCN(C5CCS(=O)(=O)CC5)CC4)cc3c2C(C)C)cc2cccnc12 [Example 800, 4-(4-(3-isopropyl-2-(8-methylquinolin-6-yl)-1H-indol-5-yl)piperidin-1-yl)tetrahydro-2H-thiopyran 1,1-dioxide] | < 100 | 100 to 1000 | 1000 to 50000 |
| CC(C)c1c(-c2ccn3nncc3c2)[nH]c2ccc(C3CCN(C4CCOCC4)CC3)cc12 [Example 701, 5-(3-isopropyl-5-(1-(tetrahydro-2H-pyran-4-yl)piperidin-4-yl)-1H-indol-2-yl)-[1,2,3]triazolo[1,5-a]pyridine] | < 100 | < 100 | 100 to 1000 |
| COc1cc(-c2[nH]c3ccc(C4CCN(CC(=O)N(C)C)CC4)cc3c2C(C)C)cc2nc(C)nn12 [Example 348, 2-(4-(3-isopropyl-2-(5-methoxy-2-methyl-[1,2,4]triazolo[1,5-a]pyridin-7-yl)-1H-indol-5-yl)piperidin-1-yl)-N,N-dimethylacetamide] | < 100 | < 100 | 1000 to 50000 |

Second part, the compound after the results:

| IC50 (human TLR7) [nM] | IC50 (human TLR8) [nM] | IC50 (human TLR9) [nM] | SMILES |
| --- | --- | --- | --- |
| < 100 | < 100 | < 100 | CC(C)c1c(-c2ccnc3[nH]ncc23)[nH]c2cc(F)c(C3CCN(C4CCN(C(C)C)CC4)CC3)cc12 [Example 830, 4-(6-fluoro-3-isopropyl-5-(1′-isopropyl-[1,4′-bipiperidin]-4-yl)-1H-indol-2-yl)-1H-pyrazolo[3,4-b]pyridine] |
| < 100 | < 100 | < 100 | Cc1c(-c2ccnc3[nH]ccc23)[nH]c2ccc(C3CCN(C4CCN(CC(C)C)CC4)CC3)cc12 [Example 812, 4-(5-(1′-isobutyl-[1,4′-bipiperidin]-4-yl)-3-methyl-1H-indol-2-yl)-1H-pyrrolo[2,3-b]pyridine] |
| < 100 | < 100 | 1000 to 50000 | CNC(=O)CN1CCC(c2ccc3[nH]c(-c4cnc5ncnn5c4)c(C(C)C)c3c2)CC1 [Example 423, 2-(4-(2-([1,2,4]triazolo[1,5-a]pyrimidin-6-yl)-3-isopropyl-1H-indol-5-yl)piperidin-1-yl)-N-methylacetamide] |
| < 100 | < 100 | 1000 to 50000 | Cc1cc2cc(-c3[nH]c4ccc(C5CCN(CC(=O)N(C)C)CC5)cc4c3C(C)C)cc(C)n2n1 [Example 420, 2-(4-(2-(2,7-dimethylpyrazolo[1,5-a]pyridin-5-yl)-3-isopropyl-1H-indol-5-yl)piperidin-1-yl)-N,N-dimethylacetamide] |
| 100 to 1000 | 100 to 1000 | 1000 to 50000 | CC(C)c1c(-c2ccc3nccn3c2)[nH]c2ccc(C3CCN(CC(=O)NCC(F)(F)F)CC3)cc12 [Example 401, 2-(4-(2-(imidazo[1,2-a]pyridin-6-yl)-3-isopropyl-1H-indol-5-yl)piperidin-1-yl)-N-(2,2,2-trifluoroethyl)acetamide] |
| 100 to 1000 | 1000 to 50000 | 1000 to 50000 | Cc1c(-c2ccnc3cn[nH]c23)[nH]c2ccc(C3CCNCC3)cc12 [Example 55, 7-(3-methyl-5-(piperidin-4-yl)-1H-indol-2-yl)-1H-pyrazolo [4,3-b]pyridine] |
| < 100 | < 100 | 1000 to 50000 | COc1cc(-c2[nH]c3ccc(C4CCN(CC(C)(C)O)CC4)cc3c2C(C)C)nn2ncnc12 [Example 749, 1-(4-(3-isopropyl-2-(8-methoxy-[1,2,4]triazolo[1,5-b]pyridazin-6-yl)-1H-indol-5-yl)piperidin-1-yl)-2-methylpropan-2-ol] |
